According to patent publication US20100172845A1, “COMPOSITIONS AND METHODS FOR TREATING MYCOBACTERIAL INFECTIONS” (BOARD OF REGENTS OF THE UNIVERSITY OF TEXAS SYSTEM, priority 2007, published 2010):
Entries after “also recorded” stand apart in the source; their conditions may differ.

Tests used:
Erdman strain of MTB = assay: Effect of surfactants on corded state and number of MTB in vitro (microscopy, acid-fast staining); format: cell-based, Mycobacterium tuberculosis; details: for bactericidal action on MTB: 1% (wt/vol.), OG 24 hr, DDM 2 hr
[1] = mouse, in vivo
MTB = assay: Growth of MTB in the presence of surfactant; format: cell-based, Mycobacterium tuberculosis; details: 0.3% surfactant
[2] = 1% (wt/vol.) surfactant, 2 hr exposure
[3] = 1% (wt/vol.) surfactant, 30 min exposure

SMILES	reversal of cording of corded MTB preparation (Erdman strain of MTB; 1% surfactant, over the time period of the study)	elimination of bacteria (Erdman strain of MTB; [2])	loss / reduction of cording of MTB (Erdman strain of MTB; [2])	bactericidal action on MTB (Erdman strain of MTB)	body weight versus control animals [1]	histological examination of spleens and livers [1]	histopathological differences of lung, liver and spleen tissues versus control [1]	leukocyte count and cytologic composition of the lavage fluid [1]	tolerability by the lungs [1]	number of bacteria in the background (higher power view) (Erdman strain of MTB; [3])	reversal of aggregation / number of cords of MTB (Erdman strain of MTB; [3])	decrease in the corded state of MTB (Erdman strain of MTB; 1% (wt/vol.) surfactant, 24 hr incubation)	bacteria eliminated (50× image) (Erdman strain of MTB; 1% (wt/vol.) surfactant, within 24 hours of treatment)	growth of MTB and mycolic acid coat (MTB)
CCCCCCCCCCCCCCCC(=O)OC[C@H](COP(=O)([O-])OCC[N+](C)(C)C)OC(=O)CCCCCCCCCCCCCCC [DPPC, 1,2-dipalmitoyl-sn-3-glycerophosphoryl choline, reference compound]	did not reverse cording													
CCCCCCCCCCCCO[C@@H]1O[C@H](CO)[C@@H](O[C@H]2O[C@H](CO)[C@@H](O)[C@H](O)[C@H]2O)[C@H](O)[C@H]1O [DDM, n-dodecyl-β-D-maltoside]		elimination of most of the bacteria	reduce cording to a similar extent of OG after 24 hr exposure; also recorded: rapid loss of cording	bactericidal	no difference in the body weight	did not reveal any visible changes	no identifiable histopathological differences	no change were found	well tolerated by the lungs					
CCCCCCCCO[C@@H]1O[C@H](CO)[C@@H](O)[C@H](O)[C@H]1O [OG, n-octyl-β-D-glucoside]				acts as a bacteriocide; also recorded: bactericidal	no difference in the body weight	did not reveal any visible changes	no identifiable histopathological differences	no change were found	well tolerated by the lungs	significant loss in the number of bacteria in the background	major reduction in the number of the cords; also recorded: rapidly reversed aggregation of MTB	more pronounced	over 90%	will grow in the presence of 0.3% OG but are not surrounded by their extensive coat of mycolic acid
